{"source": "PubChem BioAssay AID248", "about": "(DTP/NCI, 2004)", "test_system": "L1210 leukemia ip in BDF1 mice, survival T/C", "assay": "NCI In Vivo Anticancer Drug Screen. Data for tumor model L1210 Leukemia (intraperitoneal) in B6D2F1 (BDF1) mice", "conditions": "endpoint: mean survival time, higher = longer survival", "how_it_was_run": "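Tumor cells were implanted, animals were treated, and survival was followed. The result divides the treated measurement by the vehicle-control measurement.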", "key": {"[1]": {"conditions": "dose: 100.0 mg/kg/injection, schedule: Q01DX009 (ip), vehicle: saline with Tween-80"}}, "note": "Toxic doses and inconclusive results are not listed.", "data": [{"smiles": "CCOC(=O)C(=O)CC(=O)/C=C/c1ccccc1", "values": [{"measurement": "T/C", "setting": "[1]", "result": "96 % of control"}, {"measurement": "T/C", "setting": "dose: 100.0 mg/kg/injection, schedule: Q04DX003 (ip), vehicle: Klucel (hydroxypropylcellulose) (HPC)", "result": "101 % of control"}, {"measurement": "T/C", "setting": "dose: 200.0 mg/kg/injection, schedule: Q01DX009 (ip), vehicle: saline with Tween-80", "result": "101 % of control"}, {"measurement": "T/C", "setting": "dose: 200.0 mg/kg/injection, schedule: Q04DX003 (ip), vehicle: Klucel (hydroxypropylcellulose) (HPC)", "result": "98 % of control"}, {"measurement": "T/C", "setting": "dose: 400.0 mg/kg/injection, schedule: Q01DX009 (ip), vehicle: saline with Tween-80", "result": "98 % of control"}, {"measurement": "T/C", "setting": "dose: 400.0 mg/kg/injection, schedule: Q04DX003 (ip), vehicle: Klucel (hydroxypropylcellulose) (HPC)", "result": "101 % of control"}]}, {"smiles": "CNC(=O)c1ccc(C(=O)NC)cc1", "values": [{"measurement": "T/C", "setting": "dose: 100.0 mg/kg/injection, schedule: Q04DX003 (ip), vehicle: saline with Tween-80", "result": "94 % of control"}, {"measurement": "T/C", "setting": "dose: 200.0 mg/kg/injection, schedule: Q04DX003 (ip), vehicle: saline with Tween-80", "result": "103 % of control"}, {"measurement": "T/C", "setting": "dose: 400.0 mg/kg/injection, schedule: Q04DX003 (ip), vehicle: saline with Tween-80", "result": "100 % of control"}]}, {"smiles": "COc1cccc(C(C)(C)COS(=O)(=O)c2ccc(C)cc2)c1", "values": [{"measurement": "T/C", "setting": "dose: 50.0 mg/kg/injection, schedule: Q01DX009 (ip), vehicle: saline with Tween-80", "result": "90 % of control"}, {"measurement": "T/C", "setting": "[1]", "result": "90 % of control"}]}, {"smiles": "CC(CO)(CO)N=Cc1ccccc1", "values": [{"measurement": "T/C", "setting": "dose: 50.0 mg/kg/injection, schedule: Q01DX001 (ip), vehicle: saline", "result": "112 % of control"}, {"measurement": "T/C", "setting": "dose: 100.0 mg/kg/injection, schedule: Q01DX001 (ip), vehicle: saline", "result": "112 % of control"}, {"measurement": "T/C", "setting": "dose: 200.0 mg/kg/injection, schedule: Q01DX001 (ip), vehicle: saline", "result": "100 % of control"}, {"measurement": "T/C", "setting": "dose: 400.0 mg/kg/injection, schedule: Q01DX001 (ip), vehicle: saline", "result": "100 % of control"}]}, {"smiles": "O=C(O)c1cc2ccccc2oc1=O", "values": [{"measurement": "T/C", "setting": "dose: 10.0 mg/kg/injection, schedule: Q01DX009 (ip), vehicle: Klucel (hydroxypropylcellulose) (HPC)", "result": "101 % of control"}, {"measurement": "T/C", "setting": "dose: 100.0 mg/kg/injection, schedule: Q01DX001 (ip), vehicle: Klucel (hydroxypropylcellulose) (HPC)", "result": "95 % of control"}, {"measurement": "T/C", "setting": "dose: 200.0 mg/kg/injection, schedule: Q01DX001 (ip), vehicle: Klucel (hydroxypropylcellulose) (HPC)", "result": "97 % of control"}, {"measurement": "T/C", "setting": "dose: 400.0 mg/kg/injection, schedule: Q01DX001 (ip), vehicle: Klucel (hydroxypropylcellulose) (HPC)", "result": "98 % of control"}]}, {"smiles": "Cc1cc([N+](=O)[O-])c(Cl)cc1N", "values": [{"measurement": "T/C", "setting": "dose: 100.0 mg/kg/injection, schedule: Q04DX003 (ip), vehicle: gum acacia", "result": "93 % of control"}, {"measurement": "T/C", "setting": "dose: 200.0 mg/kg/injection, schedule: Q04DX003 (ip), vehicle: gum acacia", "result": "95 % of control"}, {"measurement": "T/C", "setting": "dose: 400.0 mg/kg/injection, schedule: Q04DX003 (ip), vehicle: gum acacia", "result": "95 % of control"}]}, {"smiles": "CCN(CCOC(=O)Nc1ccc(F)cc1)c1ccccc1", "values": [{"measurement": "T/C", "setting": "dose: 100.0 mg/kg/injection, schedule: Q01DX009 (ip), vehicle: Klucel (hydroxypropylcellulose) (HPC)", "result": "98 % of control"}, {"measurement": "T/C", "setting": "dose: 200.0 mg/kg/injection, schedule: Q01DX009 (ip), vehicle: Klucel (hydroxypropylcellulose) (HPC)", "result": "98 % of control"}, {"measurement": "T/C", "setting": "dose: 400.0 mg/kg/injection, schedule: Q01DX009 (ip), vehicle: Klucel (hydroxypropylcellulose) (HPC)", "result": "110 % of control"}]}, {"smiles": "Cc1cc(C(=O)O)c(C(C)C)cc1C(=O)O", "values": [{"measurement": "T/C", "setting": "dose: 100.0 mg/kg/injection, schedule: Q04DX003 (ip), vehicle: other", "result": "101 % of control"}, {"measurement": "T/C", "setting": "dose: 200.0 mg/kg/injection, schedule: Q04DX003 (ip), vehicle: other", "result": "98 % of control"}, {"measurement": "T/C", "setting": "dose: 400.0 mg/kg/injection, schedule: Q04DX003 (ip), vehicle: other", "result": "92 % of control"}]}, {"smiles": "CCCCN(C)/N=N/c1[nH]ncc1C(=O)OCC", "values": [{"measurement": "T/C", "setting": "dose: 52.0 mg/kg/injection, schedule: Q01DX009 (ip), vehicle: other", "result": "119 % of control"}, {"measurement": "T/C", "setting": "dose: 78.0 mg/kg/injection, schedule: Q01DX009 (ip), vehicle: other", "result": "119 % of control"}, {"measurement": "T/C", "setting": "dose: 266.0 mg/kg/injection, schedule: Q01DX007 (ip), vehicle: saline", "result": "154 % of control"}, {"measurement": "T/C", "setting": "dose: 266.0 mg/kg/injection, schedule: Q01DX009 (ip), vehicle: other", "result": "168 % of control"}, {"measurement": "T/C", "setting": "dose: 400.0 mg/kg/injection, schedule: Q01DX007 (ip), vehicle: saline", "result": "174 % of control"}]}]}
